Experiments:
[1] = molecular target: Cyclin-dependent kinase 17 (Homo sapiens) (UniProt Q00537); assay: Selectivity interaction (KinomeScan (DiscoverX)) EUB0001049a CDK17; conditions: at 1 µM
[2] = molecular target: Platelet-derived growth factor receptor beta (Homo sapiens, UniProt P09619); assay: Selectivity interaction (Millipore kinase profiler) EUB0000124b PDGFRB; conditions: at 10 µM
[3] = molecular target: 5-hydroxytryptamine receptor 2B (Homo sapiens, UniProt P41595); assay: Selectivity interaction (Safety Panel 44tm (Eurofins)) EUB0000162b HTR2B; conditions: at 10 µM
[4] = molecular target: T1, Serine/threonine-protein kinase 36 (Homo sapiens) (UniProt Q9NRP7); assay: Selectivity interaction (KinomeScan (DiscoverX)) EUB0000229b STK36; conditions: at 10 µM
T1 sequence (whole entry): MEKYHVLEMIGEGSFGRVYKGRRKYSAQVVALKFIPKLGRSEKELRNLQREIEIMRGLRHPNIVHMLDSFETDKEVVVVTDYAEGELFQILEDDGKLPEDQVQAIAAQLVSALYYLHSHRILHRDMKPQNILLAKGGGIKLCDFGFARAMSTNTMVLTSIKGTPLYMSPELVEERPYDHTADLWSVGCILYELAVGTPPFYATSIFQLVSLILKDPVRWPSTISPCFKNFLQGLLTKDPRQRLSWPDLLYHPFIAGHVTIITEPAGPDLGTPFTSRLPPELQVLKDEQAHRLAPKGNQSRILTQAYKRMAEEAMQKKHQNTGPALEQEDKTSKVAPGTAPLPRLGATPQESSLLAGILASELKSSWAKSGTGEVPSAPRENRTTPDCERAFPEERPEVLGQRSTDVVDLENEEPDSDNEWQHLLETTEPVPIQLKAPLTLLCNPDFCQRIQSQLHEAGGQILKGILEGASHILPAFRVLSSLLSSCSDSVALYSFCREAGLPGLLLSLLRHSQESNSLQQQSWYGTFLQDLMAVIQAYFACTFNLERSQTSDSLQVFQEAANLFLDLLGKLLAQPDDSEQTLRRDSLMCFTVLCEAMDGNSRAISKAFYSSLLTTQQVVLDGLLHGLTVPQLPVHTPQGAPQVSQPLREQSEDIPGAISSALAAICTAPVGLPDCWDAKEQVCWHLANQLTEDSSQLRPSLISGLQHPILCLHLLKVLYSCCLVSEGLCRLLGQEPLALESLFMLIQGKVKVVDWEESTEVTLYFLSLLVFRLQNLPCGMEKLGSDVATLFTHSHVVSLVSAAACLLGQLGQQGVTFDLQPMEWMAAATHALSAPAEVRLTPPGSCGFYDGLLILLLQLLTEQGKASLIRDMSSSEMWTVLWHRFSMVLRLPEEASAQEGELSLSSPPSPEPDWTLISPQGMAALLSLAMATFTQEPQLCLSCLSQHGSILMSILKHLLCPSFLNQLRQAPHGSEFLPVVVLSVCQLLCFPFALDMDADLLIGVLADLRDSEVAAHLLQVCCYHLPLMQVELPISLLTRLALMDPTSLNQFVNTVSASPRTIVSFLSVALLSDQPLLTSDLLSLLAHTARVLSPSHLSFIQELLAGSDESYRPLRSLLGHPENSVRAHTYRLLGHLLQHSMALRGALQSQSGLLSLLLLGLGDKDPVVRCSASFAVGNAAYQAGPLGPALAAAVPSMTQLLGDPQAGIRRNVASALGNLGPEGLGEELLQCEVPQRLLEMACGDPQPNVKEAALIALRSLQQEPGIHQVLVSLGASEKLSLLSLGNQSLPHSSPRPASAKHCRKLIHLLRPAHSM

[5] = molecular target: Fibroblast growth factor receptor 3 (Homo sapiens, UniProt P22607); assay: Selectivity interaction (Kinase panel (DSF assay)) EUB0001558a FGFR3
[6] = molecular target: Ribosomal protein S6 kinase alpha-3 (Homo sapiens, UniProt P51812); assay: Selectivity interaction (ActivX KiNativ screen (kinase selectivity in THP-1 cell lysates)) EUB0000639a RPS6KA3; format: subcellular; conditions: lysate, at 5 µM
[7] = molecular target: Serine/threonine-protein kinase WNK1 (Homo sapiens) (UniProt Q9H4A3); assay: Selectivity interaction (ActivX KiNativ screen (kinase selectivity in THP-1 cell lysates)) EUB0000639a WNK1; format: subcellular; conditions: lysate
[8] = molecular target: Bone morphogenetic protein receptor type-1B (Homo sapiens, UniProt O00238); assay: Selectivity interaction (KinomeScan (DiscoverX)) EUB0000092b BMPR1B; conditions: at 10 µM
[9] = molecular target: [Pyruvate dehydrogenase (acetyl-transferring)] kinase isozyme 1, mitochondrial (Homo sapiens, UniProt Q15118); assay: Selectivity interaction (Kinase screening (Upstate/Millipore)) EUB0000604a PDK1
[10] = molecular target: Tyrosine-protein kinase Fgr (Homo sapiens) (UniProt P09769); assay: Selectivity interaction (KinomeScan (DiscoverX)) EUB0000045b FGR
[11] = molecular target: T2, Serine/threonine-protein kinase DCLK3 (Homo sapiens) (UniProt Q9C098); assay: Selectivity interaction (KinomeScan (DiscoverX)) EUB0001619a DCLK3; conditions: at 1 µM
T2 sequence (whole entry): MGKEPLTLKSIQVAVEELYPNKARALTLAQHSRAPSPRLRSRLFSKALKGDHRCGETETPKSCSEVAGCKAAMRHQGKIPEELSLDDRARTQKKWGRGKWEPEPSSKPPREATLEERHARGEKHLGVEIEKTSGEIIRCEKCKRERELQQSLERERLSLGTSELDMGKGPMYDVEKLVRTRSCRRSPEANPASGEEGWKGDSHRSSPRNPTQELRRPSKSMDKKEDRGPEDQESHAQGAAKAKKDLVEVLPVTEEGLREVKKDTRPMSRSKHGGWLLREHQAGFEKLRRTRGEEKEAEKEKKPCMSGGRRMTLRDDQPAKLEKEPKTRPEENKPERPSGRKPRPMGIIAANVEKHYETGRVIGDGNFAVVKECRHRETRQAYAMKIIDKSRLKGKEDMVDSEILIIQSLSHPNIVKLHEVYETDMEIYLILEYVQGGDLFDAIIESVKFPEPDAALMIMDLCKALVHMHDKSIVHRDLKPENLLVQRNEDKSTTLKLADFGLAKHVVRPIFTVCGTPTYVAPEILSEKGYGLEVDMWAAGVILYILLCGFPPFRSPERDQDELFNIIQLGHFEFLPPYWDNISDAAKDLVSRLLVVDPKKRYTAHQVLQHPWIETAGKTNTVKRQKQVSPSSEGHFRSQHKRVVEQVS

[12] = molecular target: MAP kinase-interacting serine/threonine-protein kinase 2 (Homo sapiens, UniProt Q9HBH9); assay: Selectivity interaction (Upstate Kinase Profiler service (Millipore)) EUB0000056c MKNK2; conditions: at 1 µM
[13] = molecular target: Serine/threonine-protein kinase SBK1 (Homo sapiens) (UniProt Q52WX2); assay: Selectivity interaction (KinomeScan (DiscoverX)) EUB0000655a SBK1; conditions: at 10 µM
[14] = molecular target: TGF-beta receptor type-2 (Homo sapiens) (UniProt P37173); assay: Selectivity interaction (ProQinase) EUB0000171b TGFBR2
TGF-beta receptor type-2 (Homo sapiens), sequence (P37173 whole entry): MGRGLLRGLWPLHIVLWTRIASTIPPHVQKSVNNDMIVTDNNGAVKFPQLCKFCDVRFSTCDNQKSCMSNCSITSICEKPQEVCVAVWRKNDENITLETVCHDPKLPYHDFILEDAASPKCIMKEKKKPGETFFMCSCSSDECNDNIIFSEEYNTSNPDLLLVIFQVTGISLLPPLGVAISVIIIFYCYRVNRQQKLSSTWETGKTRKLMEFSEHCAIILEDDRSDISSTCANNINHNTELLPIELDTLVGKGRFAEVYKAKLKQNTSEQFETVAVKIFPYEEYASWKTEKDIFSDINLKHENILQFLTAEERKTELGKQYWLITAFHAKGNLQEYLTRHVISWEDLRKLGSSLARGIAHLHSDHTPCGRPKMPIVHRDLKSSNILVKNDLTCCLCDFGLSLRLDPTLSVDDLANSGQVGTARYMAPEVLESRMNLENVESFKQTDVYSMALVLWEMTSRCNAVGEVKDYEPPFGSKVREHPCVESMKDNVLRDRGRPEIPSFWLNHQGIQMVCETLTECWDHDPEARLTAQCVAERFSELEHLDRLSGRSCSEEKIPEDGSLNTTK

Serine/threonine-protein kinase WNK1 (Homo sapiens), sequence (Q9H4A3 whole entry, looked up): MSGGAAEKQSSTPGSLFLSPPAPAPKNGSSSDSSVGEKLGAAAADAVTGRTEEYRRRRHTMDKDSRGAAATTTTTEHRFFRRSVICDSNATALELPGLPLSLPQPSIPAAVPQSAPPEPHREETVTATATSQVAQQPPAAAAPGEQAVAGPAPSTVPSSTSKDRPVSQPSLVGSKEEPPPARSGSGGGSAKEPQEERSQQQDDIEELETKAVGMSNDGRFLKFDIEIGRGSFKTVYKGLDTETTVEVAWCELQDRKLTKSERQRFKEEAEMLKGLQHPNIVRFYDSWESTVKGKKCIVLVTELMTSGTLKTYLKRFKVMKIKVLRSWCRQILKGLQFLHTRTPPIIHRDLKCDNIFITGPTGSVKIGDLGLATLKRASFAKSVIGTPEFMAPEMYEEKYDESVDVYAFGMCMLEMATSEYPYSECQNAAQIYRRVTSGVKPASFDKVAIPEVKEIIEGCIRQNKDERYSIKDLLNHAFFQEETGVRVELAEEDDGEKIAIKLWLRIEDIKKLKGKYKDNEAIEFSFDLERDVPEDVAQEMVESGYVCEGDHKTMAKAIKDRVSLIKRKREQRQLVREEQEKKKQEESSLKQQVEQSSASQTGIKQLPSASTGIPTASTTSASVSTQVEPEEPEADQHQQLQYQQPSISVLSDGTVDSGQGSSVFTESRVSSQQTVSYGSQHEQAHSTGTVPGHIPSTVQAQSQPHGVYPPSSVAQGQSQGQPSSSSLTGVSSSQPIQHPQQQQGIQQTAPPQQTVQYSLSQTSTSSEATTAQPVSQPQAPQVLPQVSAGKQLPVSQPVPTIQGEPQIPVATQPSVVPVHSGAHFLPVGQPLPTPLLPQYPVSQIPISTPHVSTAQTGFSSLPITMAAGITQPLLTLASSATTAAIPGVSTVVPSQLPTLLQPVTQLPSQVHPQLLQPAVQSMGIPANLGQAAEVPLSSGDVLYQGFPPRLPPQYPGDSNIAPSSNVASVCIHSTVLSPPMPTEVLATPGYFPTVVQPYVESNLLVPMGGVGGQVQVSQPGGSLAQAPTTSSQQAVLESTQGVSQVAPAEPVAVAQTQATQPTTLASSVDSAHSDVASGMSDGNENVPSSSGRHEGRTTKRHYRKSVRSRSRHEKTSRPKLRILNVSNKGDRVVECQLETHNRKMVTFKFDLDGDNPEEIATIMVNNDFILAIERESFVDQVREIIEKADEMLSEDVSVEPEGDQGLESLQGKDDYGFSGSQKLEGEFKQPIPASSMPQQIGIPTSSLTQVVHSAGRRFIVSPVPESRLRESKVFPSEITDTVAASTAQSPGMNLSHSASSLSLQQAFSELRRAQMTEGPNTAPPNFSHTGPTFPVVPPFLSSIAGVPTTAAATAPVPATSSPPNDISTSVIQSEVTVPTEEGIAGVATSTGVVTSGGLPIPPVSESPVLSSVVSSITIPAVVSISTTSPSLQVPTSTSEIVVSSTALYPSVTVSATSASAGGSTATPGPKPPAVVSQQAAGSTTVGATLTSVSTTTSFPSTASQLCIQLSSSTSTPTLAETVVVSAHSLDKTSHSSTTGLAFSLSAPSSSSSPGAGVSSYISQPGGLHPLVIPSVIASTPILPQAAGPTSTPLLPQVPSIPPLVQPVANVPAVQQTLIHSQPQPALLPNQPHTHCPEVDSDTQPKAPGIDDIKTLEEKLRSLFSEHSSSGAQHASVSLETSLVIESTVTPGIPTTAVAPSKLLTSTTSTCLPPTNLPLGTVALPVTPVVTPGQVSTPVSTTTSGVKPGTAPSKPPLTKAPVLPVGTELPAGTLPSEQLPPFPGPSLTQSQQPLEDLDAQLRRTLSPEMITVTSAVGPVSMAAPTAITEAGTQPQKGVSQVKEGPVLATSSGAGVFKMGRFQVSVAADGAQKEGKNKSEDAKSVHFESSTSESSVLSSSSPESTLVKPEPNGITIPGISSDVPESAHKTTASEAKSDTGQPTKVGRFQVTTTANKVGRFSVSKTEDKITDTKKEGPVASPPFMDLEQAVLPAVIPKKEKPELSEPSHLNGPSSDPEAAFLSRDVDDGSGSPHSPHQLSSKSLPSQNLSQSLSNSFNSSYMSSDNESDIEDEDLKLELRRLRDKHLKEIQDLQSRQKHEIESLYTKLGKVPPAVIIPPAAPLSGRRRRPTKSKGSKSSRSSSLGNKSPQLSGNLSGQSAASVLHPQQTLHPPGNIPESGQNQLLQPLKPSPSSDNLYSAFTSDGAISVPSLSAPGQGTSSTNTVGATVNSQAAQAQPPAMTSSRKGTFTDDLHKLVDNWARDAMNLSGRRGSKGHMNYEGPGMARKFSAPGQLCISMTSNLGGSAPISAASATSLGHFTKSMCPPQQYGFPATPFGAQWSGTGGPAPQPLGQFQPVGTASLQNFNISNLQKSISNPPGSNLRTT
Tyrosine-protein kinase Fgr (Homo sapiens), sequence (P09769 2-529 limits assumed): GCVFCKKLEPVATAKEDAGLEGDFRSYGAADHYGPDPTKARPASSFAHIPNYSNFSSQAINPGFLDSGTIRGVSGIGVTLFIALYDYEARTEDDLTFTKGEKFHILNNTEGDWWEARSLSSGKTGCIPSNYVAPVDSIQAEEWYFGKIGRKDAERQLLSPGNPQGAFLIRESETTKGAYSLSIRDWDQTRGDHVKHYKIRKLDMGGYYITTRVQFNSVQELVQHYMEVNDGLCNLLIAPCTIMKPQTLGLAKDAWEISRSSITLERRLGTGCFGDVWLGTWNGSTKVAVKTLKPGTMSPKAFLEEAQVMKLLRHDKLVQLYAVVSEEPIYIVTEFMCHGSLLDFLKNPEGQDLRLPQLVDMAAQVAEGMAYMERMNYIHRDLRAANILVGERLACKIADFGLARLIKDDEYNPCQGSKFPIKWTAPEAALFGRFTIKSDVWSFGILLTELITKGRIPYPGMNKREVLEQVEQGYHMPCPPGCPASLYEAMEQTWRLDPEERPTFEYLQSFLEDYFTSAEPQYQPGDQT
Cyclin-dependent kinase 17 (Homo sapiens), sequence (Q00537 whole entry, looked up): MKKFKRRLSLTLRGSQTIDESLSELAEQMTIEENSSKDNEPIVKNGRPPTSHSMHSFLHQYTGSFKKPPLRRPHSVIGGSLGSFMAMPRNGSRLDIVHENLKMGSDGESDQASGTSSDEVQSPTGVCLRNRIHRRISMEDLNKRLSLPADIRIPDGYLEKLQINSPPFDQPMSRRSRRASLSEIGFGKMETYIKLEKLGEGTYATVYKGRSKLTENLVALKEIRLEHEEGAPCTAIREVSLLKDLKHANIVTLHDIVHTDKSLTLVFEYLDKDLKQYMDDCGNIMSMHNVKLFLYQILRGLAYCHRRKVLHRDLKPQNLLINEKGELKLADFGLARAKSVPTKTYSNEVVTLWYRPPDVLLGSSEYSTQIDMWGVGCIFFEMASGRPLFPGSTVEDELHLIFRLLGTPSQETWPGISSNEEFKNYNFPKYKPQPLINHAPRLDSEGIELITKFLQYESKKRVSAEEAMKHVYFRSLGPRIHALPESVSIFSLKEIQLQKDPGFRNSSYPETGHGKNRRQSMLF
Platelet-derived growth factor receptor beta, sequence (P09619 whole entry): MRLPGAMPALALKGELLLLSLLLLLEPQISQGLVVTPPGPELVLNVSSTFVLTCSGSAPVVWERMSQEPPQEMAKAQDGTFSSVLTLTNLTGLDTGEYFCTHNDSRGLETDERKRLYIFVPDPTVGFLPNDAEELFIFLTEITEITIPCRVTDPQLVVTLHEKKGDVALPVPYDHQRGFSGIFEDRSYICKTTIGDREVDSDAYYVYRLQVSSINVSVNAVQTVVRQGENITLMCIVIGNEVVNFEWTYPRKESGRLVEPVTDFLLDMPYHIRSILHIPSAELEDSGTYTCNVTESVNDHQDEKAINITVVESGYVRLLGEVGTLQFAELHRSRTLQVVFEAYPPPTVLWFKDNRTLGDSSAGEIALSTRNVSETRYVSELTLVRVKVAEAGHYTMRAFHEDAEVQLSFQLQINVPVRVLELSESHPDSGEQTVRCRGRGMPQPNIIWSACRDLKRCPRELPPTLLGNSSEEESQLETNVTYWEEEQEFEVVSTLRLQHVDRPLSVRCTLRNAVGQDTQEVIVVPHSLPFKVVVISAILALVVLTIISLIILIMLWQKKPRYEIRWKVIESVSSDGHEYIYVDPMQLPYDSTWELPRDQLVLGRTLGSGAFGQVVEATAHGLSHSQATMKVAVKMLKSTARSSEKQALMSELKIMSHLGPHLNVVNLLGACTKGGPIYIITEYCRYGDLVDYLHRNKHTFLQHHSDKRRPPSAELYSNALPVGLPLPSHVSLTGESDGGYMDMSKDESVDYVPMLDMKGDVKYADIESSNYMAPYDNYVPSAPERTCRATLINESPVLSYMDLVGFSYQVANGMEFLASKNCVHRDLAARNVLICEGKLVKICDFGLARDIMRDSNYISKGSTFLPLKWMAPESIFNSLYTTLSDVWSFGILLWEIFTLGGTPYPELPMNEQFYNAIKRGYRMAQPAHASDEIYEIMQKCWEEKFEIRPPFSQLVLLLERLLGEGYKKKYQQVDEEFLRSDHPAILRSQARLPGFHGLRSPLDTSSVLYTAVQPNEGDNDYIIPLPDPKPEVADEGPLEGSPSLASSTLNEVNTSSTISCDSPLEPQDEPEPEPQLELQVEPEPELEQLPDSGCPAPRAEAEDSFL

SMILES: COc1cc(Nc2nc(C)cc(-c3cnn4nc(OC)ccc34)n2)cc(C(F)(F)F)c1
- % of control [1]: 100%

SMILES: CC(=O)Nc1cccc(-n2c(=O)n(C3CC3)c(=O)c3c(Nc4ccc(I)cc4F)n(C)c(=O)c(C)c32)c1
- % of control [2]: 111%

SMILES: CN(C)C(=O)Cn1cc(-c2ccc(-c3cncc4ccccc34)cc2)cn1
- % of control [3]: 34%

SMILES: COc1cc(N(C)c2ccnc3ccc(C(F)(F)F)cc23)cc(OC)c1OC
- % binding [4]: 100%

SMILES: CC(C)(O)[C@H](F)CN1Cc2cc(NC(=O)c3cnn4cccnc34)c(N3CCOCC3)cc2C1=O
- dTM [5]: 2.5 K

SMILES: CC[C@@H]1[C@H](F)C(=O)N[C@@H]1COc1nccc2cc(C(N)=O)c(OC)cc12 [ZIMLOVISERTIB]
- % of inhibition [6]: 2.9%
- % of inhibition ([7]; at 0.01 µM): 10.1%
- % of inhibition ([7]; at 0.04 µM): 23.3%
- % of inhibition ([7]; at 0.2 µM): 9.7%
- % of inhibition ([7]; at 1 µM): 3.1%
- % of inhibition ([7]; at 5 µM): 3%

SMILES: CCC(=O)N1CCN(c2ccc(-n3c(=O)ccc4cnc5ccc(-c6cnc7ccccc7c6)cc5c43)cc2C(F)(F)F)CC1
- % of control [8]: 100%

SMILES: Cc1cnc(Nc2ccc(F)cc2Cl)nc1-c1c[nH]c(C(=O)N[C@H](CO)c2cccc(Cl)c2)c1
- % of inhibition [9]: 10%

SMILES: C=CC(=O)Nc1cc(-n2c(=O)ccc3cnc4ccc(-c5ccc(NS(C)(=O)=O)cc5)cc4c32)ccc1C
- % of control ([10]; at 1 µM): 72%
- % of control ([10]; at 10 µM): 79%

SMILES: N#Cc1cccc(-c2c[nH]c3ncnc(N4CCOCC4)c23)c1
- % of control [11]: 100%

SMILES: Cc1ccc(-c2ccc3c(ccc4sc5c(c43)NC[C@@H](C)NC5=O)n2)cn1
- % of inhibition [12]: 85%

SMILES: CN(C)CCOc1ccc(-c2nc(-c3ccncc3)c(-c3ccc4c(c3)CC/C4=N\O)[nH]2)cc1
- % of control [13]: 83%

SMILES: C=CC(=O)Nc1cccc(C(=O)Nc2ccc(Nc3cc(-c4[nH]c(SC)nc4C)ccn3)cc2)c1
- % of control ([14]; at 1 µM): 53%
- % of control ([14]; at 5 µM): 4%

From ChEMBL document CHEMBL5465560, “Selectivity Literature for EUbOPEN Chemogenomic Library” (2024)
